From patent US9321756B2, “Azole compounds as PIM inhibitors” (priority 2011, dated 2016) come the findings set out here.

Where two headings read alike, the source gives them in different places.

The target of assay [1] is full length recombinant Pim-1 (Homo sapiens (Human), UniProt P11309). As to the kind of experiment: Pim enzyme assay (HTRF, phosphorylation of biotinylated-BAD (S112) peptide), Pim-1. The format is biochemical.
For assay [2], the target named is full length recombinant Pim-2 (Homo sapiens (Human), UniProt Q9P1W9). The experiment in a line: Pim enzyme assay (HTRF, phosphorylation of biotinylated-BAD (S112) peptide), Pim-2. The format is biochemical. The following applies: read-out: Pim2_IC50.
Assay [3] deals with full length recombinant Pim-3 (Homo sapiens (Human), UniProt Q86V86). As to the kind of experiment: Pim enzyme assay (HTRF, phosphorylation of biotinylated-BAD (S112) peptide), Pim-3. The note with it: read-out: Pim3 IC50. The format is biochemical. The gist of the method: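 Full-length recombinant Pim-3 phosphorylated biotinylated BAD (S112) peptide in 60 mM Hepes pH 7.0, 0.05% BSA, 2 mM DTT for 1 h 30 min at 22 °C. After EDTA stop, HTRF was read with Eu anti-phospho-BAD and streptavidin-APC. IC50 came from 4-parameter logistic fit of percent-of-control values.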

For assay [4], the system named is Pim-1 stably transfected U2OS human osteogenic sarcoma line. The experiment in a line: Pim cell assay U2OS (phospho-BAD normalized against total BAD), Pim-1 transfected. The format is cell-based. As for the experimental part:
(§1) The cell lines used in the assay were generated by the stable transfection of either Pim-1 or Pim-2 into the U2OS human osteogenic sarcoma line. The assay for determination of the Pim activity in the engineered U2OS cell lines measures levels of phospho-BAD normalized against total BAD protein levels. It was conducted as follows:
(§2) The adherent cells were dissociated from the flasks using non-enzymatic cell dissociation solution (Sigma #C5914). […] The cells were then incubated overnight at 37° C., 5% CO2.
(§3) In addition to the 10-point dosing curve of the test compound, DMSO alone was run as the high control.
(§4) This dilution in DMSO was then diluted again into cell growth medium. Aliquots (12 μL) of the compound diluted in growth medium were then transferred to the appropriate wells of the 96-well plates containing cells to a final DMSO concentration of 0.3%. The cell plates were then incubated with compound for 29 min at 37° C., 5% CO2.
(§5) The cell plates containing lysis buffer were then immediately stored at −70° C.
(§6) These prepared lysates were then assayed for phospho and total BAD according to the manufacturer's protocols (Meso Scale Diagnostics, Cat#K15103C-3 & #K15103D-3). The plates were read on the MSD Sector Imager 6000, and results were calculated according to the assay protocols ((% Phosphoprotein=((2×Phospho signal)/(Phospho signal+Total signal))×100)).

The subject of assay [5] is Pim-2 stably transfected U2OS human osteogenic sarcoma line. As to the kind of experiment: Pim cell assay U2OS (phospho-BAD normalized against total BAD), Pim-2 transfected. The following applies: read-out: U2OS Pim2_Cell_IC50. In kind it is cell-based. As for the experimental part:
as §1, §2, §3, §4, §5, §6

Setting [6] is: Pim-1 enzyme assay, read-out: Pim_1_IC50.
Setting [7] is: Homo sapiens, U2OS, read-out: U2OS Pim1_Cell_IC50, U2OS cells, Pim-1 transfected.
The mark [8] stands for this setting: Homo sapiens, U2OS, read-out: U2OS Pim1_Cell_IC50.
The mark [9] stands for this setting: read-out: U2OS Pim1_Cell_IC50, U2OS cells, Pim-1 transfected.
[10] abbreviates: Homo sapiens, U2OS cells, Pim-2 transfected.

full length recombinant Pim-2, sequence (Q9P1W9 whole entry): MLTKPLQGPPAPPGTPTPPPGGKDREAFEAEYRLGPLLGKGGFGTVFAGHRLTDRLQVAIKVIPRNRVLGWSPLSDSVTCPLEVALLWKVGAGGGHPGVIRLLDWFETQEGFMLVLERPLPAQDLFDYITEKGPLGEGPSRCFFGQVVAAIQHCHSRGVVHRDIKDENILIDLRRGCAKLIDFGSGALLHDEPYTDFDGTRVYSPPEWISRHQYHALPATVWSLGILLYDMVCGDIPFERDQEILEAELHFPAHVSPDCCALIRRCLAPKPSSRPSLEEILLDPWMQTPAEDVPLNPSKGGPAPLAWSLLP
full length recombinant Pim-1, sequence (P11309 whole entry): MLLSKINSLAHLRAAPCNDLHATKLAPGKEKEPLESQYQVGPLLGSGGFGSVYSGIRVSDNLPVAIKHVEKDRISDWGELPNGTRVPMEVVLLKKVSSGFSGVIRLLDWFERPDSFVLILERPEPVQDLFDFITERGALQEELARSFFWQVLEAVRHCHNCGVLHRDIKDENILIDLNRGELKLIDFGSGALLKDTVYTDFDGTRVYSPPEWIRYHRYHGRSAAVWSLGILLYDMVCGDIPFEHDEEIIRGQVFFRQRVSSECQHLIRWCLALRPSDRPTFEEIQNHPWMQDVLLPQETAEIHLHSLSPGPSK

Take `Fc1ccccc1-c1c[nH]c2ccc(-c3nnc(N[C@H]4CCCNC4)s3)cc12` (stereo in doubt) [Example 139, N-(5-(3-(2-fluorophenyl)-1H-indol-5-yl)-1,3,4-thiadiazol-2-yl)-3-piperidinamine]: the IC50 was found to be 0.0293 µM in assay [1] (setting [6]), 0.106 µM in assay [2] (Pim-2 enzyme assay), 0.0184 µM in assay [3] (Pim-3 enzyme assay) and 0.578 µM in assay [4] (setting [7]).

As for `N[C@H]1CCN(c2nnc(-c3ccc4[nH]cc(-c5ccccc5F)c4c3)s2)C1` (stereo in doubt) [Example 140, 1-(5-(3-(2-fluorophenyl)-1H-indol-5-yl)-1,3,4-thiadiazol-2-yl)-3-pyrrolidinamine], the IC50 is 0.0732 µM in assay [1] (setting [6]), 0.244 µM in assay [2] (Pim-2 enzyme assay), 0.0134 µM in assay [3] (Pim-3 enzyme assay) and 0.871 µM in assay [4] (setting [8]).

With `Fc1ccccc1-c1c[nH]c2ccc(-c3nnc(NCC[C@H]4CCCCN4)s3)cc12` (stereo in doubt) [Example 141, 5-(3-(2-fluorophenyl)-1H-indol-5-yl)-N-(2-(2-piperidinyl)ethyl)-1,3,4-thiadiazol-2-amine], the IC50 in assay [1] (setting [6]) came to 0.074 µM; in assay [2] (Pim-2 enzyme assay) it was 0.48 µM; in assay [3] (Pim-3 enzyme assay) it was 0.0496 µM; in assay [4] (setting [8]) it was 1.11 µM.

Turning to `C[C@@H]1CCCN(c2cccc(-c3c[nH]c4ccc(-c5nnc(N)s5)cc34)n2)C1` (stereo in doubt) [Example 174, 5-(3-(6-(3-methyl-1-piperidinyl)-2-pyridinyl)-1H-indol-5-yl)-1,3,4-thiadiazol-2-amine], the IC50 is 0.041 µM in assay [1] (setting [6]), 0.159 µM in assay [2] (Pim-2 enzyme assay), 0.0236 µM in assay [3] (Pim-3 enzyme assay) and 0.998 µM in assay [4] (setting [8]).

On to `CC1COCCN1c1nnc(-c2ccc3[nH]cc(-c4cncc(C5CC5)n4)c3c2)o1` (stereo in doubt) [Example 249, 3-(6-cyclopropyl-2-pyrazinyl)-5-(5-((3R)-3-methyl-4-morpholinyl)-1,3,4-oxadiazol-2-yl)-1H-indole], for which the IC50 is 0.0161 µM in assay [1] (setting [6]); 0.0489 µM in assay [2] (Pim-2 enzyme assay); 0.375 µM in assay [4] (setting [9]); over 31.6 µM in assay [5] (U2OS cells, Pim-2 transfected).

As for `CC[C@@H]1COCCN1c1nnc(-c2ccc3[nH]cc(-c4cncc(C5CC5)n4)c3c2)o1` (stereo in doubt) [Example 252, 3-(6-cyclopropyl-2-pyrazinyl)-5-(5-(3-ethyl-4-morpholinyl)-1,3,4-oxadiazol-2-yl)-1H-indole], the IC50 is 0.00966 µM in assay [1] (setting [6]), 0.0298 µM in assay [2] (Pim-2 enzyme assay), 0.31 µM in assay [4] (setting [8]) and over 31.6 µM in assay [5] (setting [10]).

For the compound `NCCCNc1nnc(-c2ccc3[nH]cc(-c4ccccc4F)c3c2)s1` [Example 12, N-(5-(3-(2-fluorophenyl)-1H-indol-5-yl)-1,3,4-thiadiazol-2-yl)propane-1,3-diamine], the IC50 in assay [1] (setting [6]) stood at 0.0516 µM; in assay [2] (Pim-2 enzyme assay), 0.155 µM; in assay [3] (Pim-3 enzyme assay), 0.0137 µM; in assay [4] (setting [8]), 3.17 µM.

In the case of `Nc1nnc(-c2ccc3[nH]cc(-c4cccc(N5CCCC5)n4)c3c2)s1` [Example 14, 5-(3-(6-(pyrrolidin-1-yl)pyridin-2-yl)-1H-indol-5-yl)-1,3,4-thiadiazol-2-amine], the IC50 stood at 0.0111 µM in assay [1] (read-out: Pim_1_IC50), 0.042 µM in assay [2] (Pim-2 enzyme assay) and 0.159 µM in assay [4] (setting [9]).

Consider `Nc1nnc(-c2ccc3[nH]cc(-c4cncc(NC5CC5)n4)c3c2)s1` [Example 15, 5-(3-(6-(cyclopropylamino)pyrazin-2-yl)-1H-indol-5-yl)-1,3,4-thiadiazol-2-amine], for which the IC50 in assay [1] (read-out: Pim_1_IC50) turned out to be 0.00457 µM; in assay [2] (Pim-2 enzyme assay), 0.0201 µM; in assay [4] (setting [7]), 0.108 µM.

Turning to `Nc1nnc(-c2ccc3[nH]cc(-c4cccc(NC5CCCC5)n4)c3c2)s1` [Example 16, 5-(3-(6-(cyclopentylamino)pyridin-2-yl)-1H-indol-5-yl)-1,3,4-thiadiazol-2-amine 2,2,2-trifluoroacetate], the IC50 in assay [2] amounted to 0.0211 µM; in assay [5] (Homo sapiens, U2OS), 3.09 µM.

With `CN1CCN(c2cccc(-c3c[nH]c4ccc(-c5nnc(N)s5)cc34)n2)CC1=O` [Example 30, 4-(6-(5-(5-amino-1,3,4-thiadiazol-2-yl)-1H-indol-3-yl)pyridin-2-yl)-1-methylpiperazin-2-one], the IC50 in assay [1] (read-out: Pim_1_IC50) amounted to 0.0133 µM; in assay [2] (Pim-2 enzyme assay), 0.0527 µM; in assay [3] (Pim-3 enzyme assay), 0.0025 µM; in assay [4] (setting [7]) it was 1.17 µM.

For `c1cc2[nH]cc(-c3cncc(C4CC4)n3)c2cc1-c1nnc(N2CCCC2)o1` [Example 37, 2-(3-(6-Cyclopropylpyrazin-2-yl)-1H-indol-5-yl)-5-(pyrrolidin-1-yl)-1,3,4-oxadiazole 2,2,2-trifluoroacetate], the IC50 in assay [1] (setting [6]) worked out at 0.00914 µM; in assay [2], 0.0801 µM; in assay [3], 0.00678 µM; in assay [4] (setting [7]), 0.237 µM.

With `Nc1nnc(-c2ccc3[nH]cc(-c4cncc(-c5ccccc5Cl)n4)c3c2)o1` [Example 117, 5-(3-(6-(2-chlorophenyl)-2-pyrazinyl)-1H-indol-5-yl)-1,3,4-oxadiazol-2-amine], the IC50 was 0.0165 µM in assay [1] (setting [6]), 0.0573 µM in assay [2] (Pim-2 enzyme assay), 0.0218 µM in assay [3] (Pim-3 enzyme assay) and 0.227 µM in assay [4] (setting [7]).

Consider `Fc1ccccc1-c1c[nH]c2ccc(-c3nnc(NCc4cccc5[nH]ccc45)s3)cc12` [Example 143, 5-(3-(2-fluorophenyl)-1H-indol-5-yl)-N-(1H-indol-4-ylmethyl)-1,3,4-thiadiazol-2-amine], for which the IC50 came to 0.145 µM in assay [1] (setting [6]), 3.02 µM in assay [2] (Pim-2 enzyme assay), 0.0845 µM in assay [3] (Pim-3 enzyme assay) and 5.2 µM in assay [4] (setting [8]).

As to `Nc1nnc(-c2ccc3[nH]cc(-c4cccc(OC5CCCCC5)n4)c3c2)s1` [Example 173, 5-(3-(6-(cyclohexyloxy)-2-pyridinyl)-1H-indol-5-yl)-1,3,4-thiadiazol-2-amine], the IC50 in assay [1] (setting [6]) came out at 0.0405 µM; in assay [2] (Pim-2 enzyme assay), 0.114 µM; in assay [4] (Homo sapiens, U2OS cells, Pim-1 transfected, read-out: U2OS Pim1_Cell_IC50) it was 1.02 µM.

For the compound `CC1CCN(c2cccc(-c3c[nH]c4ccc(-c5nnc(N)s5)cc34)n2)CC1` [Example 175, 5-(3-(6-(4-methyl-1-piperidinyl)-2-pyridinyl)-1H-indol-5-yl)-1,3,4-thiadiazol-2-amine], the IC50 came out at 0.0414 µM in assay [1] (setting [6]), 0.117 µM in assay [2] (Pim-2 enzyme assay), 0.0177 µM in assay [3] (Pim-3 enzyme assay) and 0.682 µM in assay [4] (setting [8]).

Turning to `Nc1nnc(-c2ccc3[nH]cc(-c4cccc(N5CCCC5)n4)c3c2)s1` [Example 176, 5-(3-(6-(1-pyrrolidinyl)-2-pyridinyl)-1H-indol-5-yl)-1,3,4-thiadiazol-2-amine], the IC50 was found to be 0.0435 µM in assay [1] (read-out: Pim_1_IC50), 0.104 µM in assay [2] (Pim-2 enzyme assay) and 0.526 µM in assay [4] (setting [9]).

With `CN1CCN(c2cnc(-c3c[nH]c4ccc(-c5nnc(N)s5)cc34)cn2)CC1` [Example 178, 5-(3-(5-(4-methyl-1-piperazinyl)-2-pyrazinyl)-1H-indol-5-yl)-1,3,4-thiadiazol-2-amine], the IC50 in assay [1] (setting [6]) is 0.0613 µM; in assay [2] (Pim-2 enzyme assay) it was 0.459 µM; in assay [3] (Pim-3 enzyme assay), 0.0541 µM; in assay [4] (setting [7]) it was 2.25 µM.

Regarding `Nc1nnc(-c2ccc3[nH]cc(-c4cccc(N5CCCCC5=O)n4)c3c2)s1` [Example 181, 1-(6-(5-(5-amino-1,3,4-thiadiazol-2-yl)-1H-indol-3-yl)-2-pyridinyl)-2-piperidinone], the IC50 in assay [1] (setting [6]) was determined as 0.0981 µM; in assay [2] (Pim-2 enzyme assay), 0.223 µM; in assay [3] (Pim-3 enzyme assay) it was 0.047 µM; in assay [4] (setting [8]), 2.26 µM.

As for `CC(C)Nc1cncc(-c2c[nH]c3ccc(-c4nnc(N)s4)cc23)n1` [Example 206, 6-(5-(5-amino-1,3,4-thiadiazol-2-yl)-1H-indol-3-yl)-N-(1-methylethyl)-2-pyrazinamine], the IC50 is 0.00965 µM in assay [2] (Pim-2 enzyme assay), 0.00115 µM in assay [3] (Pim-3 enzyme assay) and 0.945 µM in assay [5] (setting [10]).

For `Nc1ncc(-c2ccc3[nH]cc(-c4cccc(N5CCOCC5)n4)c3c2)s1` [Example 213, 5-(3-(6-(4-morpholinyl)-2-pyridinyl)-1H-indol-5-yl)-1,3-thiazol-2-amine], the IC50 in assay [1] was 0.0949 µM; in assay [2] (Pim-2 enzyme assay) it was 0.73 µM; in assay [3] (Pim-3 enzyme assay), 0.0444 µM; in assay [4] (setting [8]) it was 1.52 µM.

`c1cc2[nH]cc(-c3cncc(C4CC4)n3)c2cc1-c1nnc(N2CCOCC2)o1` [Example 245, 3-(6-cyclopropyl-2-pyrazinyl)-5-(5-(4-morpholinyl)-1,3,4-oxadiazol-2-yl)-1H-indole]: the figures for the IC50 in assay [1] (setting [6]), in assay [4] (setting [7]) and in assay [5] (setting [10]) were 0.0203 µM, 0.217 µM and over 31.6 µM, respectively.
